According to patent publication US6809065B2, “Herbicide containing substituted pyrazole derivative as active ingredient” (SDS Biotech K.K., priority 2001, dated 2004):

What was measured:
[1] = system: Chenopodium album; test: Upland field foliage treatment (Test Example 1); format: in vivo; details: foliage treatment 14th day after sowing, wettable powder, 1 kg active ingredient per hectare, evaluated 21st day after application
Procedure, shortened: (§1)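 Scored on an index 21 days after treatment: a high value on weeds means more herbicidal effect, and a low value on crops means more crop safety. Treatment was a foliar spray of water-diluted wettable powder at 1 kg a.i./ha, applied to plants 14 days after sowing in upland soil.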

[2] = system: Digitaria adscendens; test: Upland field foliage treatment (Test Example 1); format: in vivo; details: foliage treatment 14th day after sowing, wettable powder, 1 kg active ingredient per hectare, evaluated 21st day after application
Procedure, shortened: as §1

[3] = system: Setaria viridis; test: Upland field foliage treatment (Test Example 1); format: in vivo; details: foliage treatment 14th day after sowing, wettable powder, 1 kg active ingredient per hectare, evaluated 21st day after application
Procedure, shortened: as §1

[4] = system: Stellaria media; test: Upland field foliage treatment (Test Example 1); format: in vivo; details: foliage treatment 14th day after sowing, wettable powder, 1 kg active ingredient per hectare, evaluated 21st day after application
Procedure, shortened: as §1

[5] = system: soybean (Glycine max); test: Upland field foliage treatment (Test Example 1), crop; format: in vivo; details: foliage treatment 14th day after sowing, 1 kg active ingredient per hectare, evaluated 21st day, lower index = higher safety
Procedure, shortened: as §1

[6] = system: wheat (Triticum aestivum); test: as above; format: in vivo; details: foliage treatment 14th day after sowing, 1 kg active ingredient per hectare, evaluated 21st day, lower index = higher safety
Procedure, shortened: as §1

[7] = system: Chenopodium album; test: Upland soil treatment (Test Example 2); format: in vivo; details: soil surface treatment next day after sowing, wettable powder, 1 kg active ingredient per hectare, evaluated 21st day after application
Procedure, shortened: (§2)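 Scored 21 days post-application on an index scale where higher values mean greater herbicidal effect on weeds and lower values mean greater crop safety. Treatment was a water-diluted wettable powder sprayed evenly onto the soil surface at 1 kg active ingredient per hectare, one day after seeding.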

[8] = system: Digitaria adscendens; test: Upland soil treatment (Test Example 2); format: in vivo; details: soil surface treatment next day after sowing, wettable powder, 1 kg active ingredient per hectare, evaluated 21st day after application
Procedure, shortened: as §2

[9] = system: Setaria viridis; test: Upland soil treatment (Test Example 2); format: in vivo; details: soil surface treatment next day after sowing, wettable powder, 1 kg active ingredient per hectare, evaluated 21st day after application
Procedure, shortened: as §2

[10] = system: Stellaria media; test: Upland soil treatment (Test Example 2); format: in vivo; details: soil surface treatment next day after sowing, wettable powder, 1 kg active ingredient per hectare, evaluated 21st day after application
Procedure, shortened: as §2

[11] = system: soybean (Glycine max); test: Upland soil treatment (Test Example 2), crop; format: in vivo; details: soil surface treatment next day after sowing, 1 kg active ingredient per hectare, evaluated 21st day, lower index = higher safety
Procedure, shortened: as §2

[12] = system: wheat (Triticum aestivum); test: Upland soil treatment (Test Example 2), crop; format: in vivo; details: soil surface treatment next day after sowing, 1 kg active ingredient per hectare, evaluated 21st day, lower index = higher safety
Procedure, shortened: as §2

[13] = system: Echinochloa spp.; test: Paddy field treatment (Test Example 3); format: in vivo, Echinochloa crusgalli; details: paddy pot, submerged 4 cm, dropped on water surface 10th day after transplantation, 1 kg active ingredient per hectare, evaluated 21st day
Procedure, shortened: (§3)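 Index scoring of herbicidal effect and rice safety 21 days after treatment. The wettable powder, dosed at 1 kg a.i./ha, was dripped onto flooded pots (4 cm water) 10 days after transplanting two-leaf Koshihikari rice. Weed seeds had been sown into the puddled soil.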

[14] = system: Ammannia multiflora; test: Paddy field treatment (Test Example 3); format: in vivo; details: paddy pot, submerged 4 cm, dropped on water surface 10th day after transplantation, 1 kg active ingredient per hectare, evaluated 21st day
Procedure, shortened: as §3

[15] = system: Monochoria vaginalis; test: Paddy field treatment (Test Example 3); format: in vivo; details: paddy pot, submerged 4 cm, dropped on water surface 10th day after transplantation, 1 kg active ingredient per hectare, evaluated 21st day
Procedure, shortened: as §3

[16] = system: Scirpus juncoides; test: Paddy field treatment (Test Example 3); format: in vivo; details: paddy pot, submerged 4 cm, dropped on water surface 10th day after transplantation, 1 kg active ingredient per hectare, evaluated 21st day
Procedure, shortened: as §3

[17] = system: rice (Oryza sative, variety: Koshihikari); test: Paddy field treatment (Test Example 3), crop; format: in vivo, Oryza sativa; details: transplanted rice two-leaf period, water surface treatment 10th day after transplantation, 1 kg active ingredient per hectare, evaluated 21st day, lower index = higher safety
Procedure, shortened: as §3

Structure (SMILES) | Herbicidal activity Chenopodium album [1] | Herbicidal activity Digitaria adscendens [2] | Herbicidal activity Setaria viridis [3] | Herbicidal activity Stellaria media [4] | Herbicidal activity Glycine max [5] | Herbicidal activity Triticum aestivum [6] | Herbicidal activity Chenopodium album [7] | Herbicidal activity Digitaria adscendens [8] | Herbicidal activity Setaria viridis [9] | Herbicidal activity Stellaria media [10] | Herbicidal activity Glycine max [11] | Herbicidal activity Triticum aestivum [12] | Herbicidal activity Echinochloa spp. [13] | Herbicidal activity Ammannia multiflora [14] | Herbicidal activity Monochoria vaginalis [15] | Herbicidal activity Scirpus juncoides [16] | Herbicidal activity Oryza sativa [17]
COC=C(Cn1nc(-c2ccc(Cl)cc2Cl)c(Br)c1C)C(=O)OC [Compound 30] | 5 (herbicidal effect of not less than 90% by weight) | 5 (herbicidal effect of not less than 90% by weight) | 4 (herbicidal effect of not less than 70% by weight and less than 90% by weight) | 5 (herbicidal effect of not less than 90% by weight) | 1 (herbicidal effect of not less than 10% by weight and less than 30% by weight) | 0 (herbicidal effect of not less than 0% by weight and less than 10% by weight) | 4 (herbicidal effect of not less than 70% by weight and less than 90% by weight) | 5 (herbicidal effect of not less than 90% by weight) | 5 (herbicidal effect of not less than 90% by weight) | 4 (herbicidal effect of not less than 70% by weight and less than 90% by weight) | 0 (herbicidal effect of not less than 0% by weight and less than 10% by weight) | 0 (herbicidal effect of not less than 0% by weight and less than 10% by weight) | 4 (herbicidal effect of not less than 70% by weight and less than 90% by weight) | 5 (herbicidal effect of not less than 90% by weight) | 5 (herbicidal effect of not less than 90% by weight) | 4 (herbicidal effect of not less than 70% by weight and less than 90% by weight) | 0 (herbicidal effect of not less than 0% by weight and less than 10% by weight)
COC=C(Cn1ccc(-c2ccccc2)n1)C(=O)OC [Compound 1] | 5 (herbicidal effect of not less than 90% by weight) | 5 (herbicidal effect of not less than 90% by weight) | 5 (herbicidal effect of not less than 90% by weight) | 5 (herbicidal effect of not less than 90% by weight) | 1 (herbicidal effect of not less than 10% by weight and less than 30% by weight) | 1 (herbicidal effect of not less than 10% by weight and less than 30% by weight) | 4 (herbicidal effect of not less than 70% by weight and less than 90% by weight) | 5 (herbicidal effect of not less than 90% by weight) | 4 (herbicidal effect of not less than 70% by weight and less than 90% by weight) | 4 (herbicidal effect of not less than 70% by weight and less than 90% by weight) | 0 (herbicidal effect of not less than 0% by weight and less than 10% by weight) | 0 (herbicidal effect of not less than 0% by weight and less than 10% by weight) | 5 (herbicidal effect of not less than 90% by weight) | 4 (herbicidal effect of not less than 70% by weight and less than 90% by weight) | 5 (herbicidal effect of not less than 90% by weight) | 5 (herbicidal effect of not less than 90% by weight) | 1 (herbicidal effect of not less than 10% by weight and less than 30% by weight)
COC=C(Cn1nc(-c2cccc(Cl)c2)c(C)c1C)C(=O)OC [Compound 34] | 5 (herbicidal effect of not less than 90% by weight) | 5 (herbicidal effect of not less than 90% by weight) | 4 (herbicidal effect of not less than 70% by weight and less than 90% by weight) | 4 (herbicidal effect of not less than 70% by weight and less than 90% by weight) | 1 (herbicidal effect of not less than 10% by weight and less than 30% by weight) | 1 (herbicidal effect of not less than 10% by weight and less than 30% by weight) | 4 (herbicidal effect of not less than 70% by weight and less than 90% by weight) | 4 (herbicidal effect of not less than 70% by weight and less than 90% by weight) | 4 (herbicidal effect of not less than 70% by weight and less than 90% by weight) | 4 (herbicidal effect of not less than 70% by weight and less than 90% by weight) | 0 (herbicidal effect of not less than 0% by weight and less than 10% by weight) | 0 (herbicidal effect of not less than 0% by weight and less than 10% by weight) | 3 (herbicidal effect of not less than 50% by weight and less than 70% by weight) | 3 (herbicidal effect of not less than 50% by weight and less than 70% by weight) | 5 (herbicidal effect of not less than 90% by weight) | 3 (herbicidal effect of not less than 50% by weight and less than 70% by weight) | 0 (herbicidal effect of not less than 0% by weight and less than 10% by weight)
COC=C(Cn1nc(-c2cccc(Cl)c2Cl)c(Br)c1C)C(=O)OC [Compound 29] | 5 (herbicidal effect of not less than 90% by weight) | 5 (herbicidal effect of not less than 90% by weight) | 4 (herbicidal effect of not less than 70% by weight and less than 90% by weight) | 5 (herbicidal effect of not less than 90% by weight) | 1 (herbicidal effect of not less than 10% by weight and less than 30% by weight) | 1 (herbicidal effect of not less than 10% by weight and less than 30% by weight) | 4 (herbicidal effect of not less than 70% by weight and less than 90% by weight) | 4 (herbicidal effect of not less than 70% by weight and less than 90% by weight) | 4 (herbicidal effect of not less than 70% by weight and less than 90% by weight) | 4 (herbicidal effect of not less than 70% by weight and less than 90% by weight) | 0 (herbicidal effect of not less than 0% by weight and less than 10% by weight) | 0 (herbicidal effect of not less than 0% by weight and less than 10% by weight) | 4 (herbicidal effect of not less than 70% by weight and less than 90% by weight) | 5 (herbicidal effect of not less than 90% by weight) | 5 (herbicidal effect of not less than 90% by weight) | 4 (herbicidal effect of not less than 70% by weight and less than 90% by weight) | 0 (herbicidal effect of not less than 0% by weight and less than 10% by weight)
